Assay results taken from ChEMBL document CHEMBL3627635, “Synthesis and anti-proliferative activity of novel azazerumbone conjugates with chalcones” (Bioorg Med Chem Lett, 2015).
≈ marks a conversion by molar mass, not a printed value.

Legend:
Assay type in all cases: functional, cell-based
[1] = Antiproliferative activity against human Lu cells
[2] = tested on: HepG2; assay: Antiproliferative activity against human HepG2 cells
[3] = tested on: MCF7; assay: Antiproliferative activity against human MCF7 cells
[4] = tested on: P338; assay: Antiproliferative activity against mouse […] cells
[5] = tested on: SW480; assay: Antiproliferative activity against human SW480 cells
[6] = tested on: HeLa; assay: Antiproliferative activity against human HeLa cells

IC50 [2] [µg/mL]	IC50 [3] [µg/mL]	IC50 [5] [µg/mL]	IC50 [6] [µg/mL]	SMILES	IC50 [1] [µg/mL]	IC50 [4] [µg/mL]
1.71 (≈ 2.8 µM)	1.17 (≈ 1.92 µM)	0.9 (≈ 1.47 µM)		COc1ccccc1/C=C/C(=O)c1ccc(OCCn2cc(CN3C(=O)/C=C/C(C)(C)C/C=C(\C)CC/C=C/3C)nn2)cc1O	2.4 (≈ 3.93 µM)	1.1 (≈ 1.8 µM)
1.59 (≈ 2.11 µM)	1.13 (≈ 1.5 µM)	0.91 (≈ 1.21 µM)		COc1ccc(/C=C/C(=O)c2ccc(OCCn3cc(CN4C(=O)/C=C/C(C)(C)C/C=C(\C)CC/C=C/4C)nn3)cc2O)cc1OCCCN1CCOCC1	1.56 (≈ 2.07 µM)	0.96 (≈ 1.27 µM)
2.06 (≈ 3.37 µM)	2.85 (≈ 4.67 µM)	3.24 (≈ 5.3 µM)		COc1ccc(/C=C/C(=O)c2ccc(OCCn3cc(CN4C(=O)/C=C/C(C)(C)C/C=C(\C)CC/C=C/4C)nn3)cc2O)cc1	1.67 (≈ 2.73 µM)	1.21 (≈ 1.98 µM)
0.99 (≈ 1.68 µM)	0.58 (≈ 0.987 µM)	0.71 (≈ 1.21 µM)		COc1cc(/C=C/C(=O)c2ccc(OCCCN3C(=O)/C=C/C(C)(C)C/C=C(\C)CC/C=C/3C)cc2)cc(OC)c1OC	1.01 (≈ 1.72 µM)	0.77 (≈ 1.31 µM)
0.87 (≈ 1.46 µM)	1.21 (≈ 2.03 µM)	1.16 (≈ 1.95 µM)		C/C1=C\CC(C)(C)/C=C/C(=O)N(Cc2cn(CCOc3ccc(C(=O)/C=C/c4ccc(C)cc4)c(O)c3)nn2)/C(C)=C/CC1	0.91 (≈ 1.53 µM)	0.92 (≈ 1.55 µM)
1.38 (≈ 2.62 µM)	1.37 (≈ 2.6 µM)	1.34 (≈ 2.54 µM)		COc1cccc(/C=C/C(=O)c2ccc(OCCCN3C(=O)/C=C/C(C)(C)C/C=C(\C)CC/C=C/3C)cc2)c1	1.06 (≈ 2.01 µM)	1.1 (≈ 2.08 µM)
13.3 (≈ 61.1 µM)	9.67 (≈ 44.3 µM)	3.15 (≈ 14.4 µM)	2.5 (≈ 11.5 µM)	C/C1=C\CC(C)(C)/C=C/C(=O)/C(C)=C/CC1 [ZERUMBONE]	6.05 (≈ 27.7 µM)	2.63 (≈ 12 µM)
1.44 (≈ 2.15 µM)	2.78 (≈ 4.14 µM)	2.61 (≈ 3.89 µM)		COc1cc(/C=C/C(=O)c2ccc(OCCn3cc(CN4C(=O)/C=C/C(C)(C)C/C=C(\C)CC/C=C/4C)nn3)cc2O)cc(OC)c1OC	1.28 (≈ 1.91 µM)	0.89 (≈ 1.33 µM)
34.6 (≈ 148 µM)	15.6 (≈ 67 µM)	6.83 (≈ 29.3 µM)		C/C1=C\CC(C)(C)/C=C/C(=O)N/C(C)=C/CC1	17.8 (≈ 76.4 µM)	6.25 (≈ 26.8 µM)
1.53 (≈ 2.28 µM)	1.07 (≈ 1.59 µM)	0.8 (≈ 1.19 µM)		COc1ccc(/C=C/C(=O)c2ccc(OCCCN3C(=O)/C=C/C(C)(C)C/C=C(\C)CC/C=C/3C)cc2)cc1OCCCN1CCOCC1	1.22 (≈ 1.82 µM)	1.08 (≈ 1.61 µM)
1.53 (≈ 2.99 µM)	1.21 (≈ 2.36 µM)	1.57 (≈ 3.07 µM)		C/C1=C\CC(C)(C)/C=C/C(=O)N(CCCOc2ccc(C(=O)/C=C/c3ccc(C)cc3)cc2)/C(C)=C/CC1	1.18 (≈ 2.31 µM)	1.29 (≈ 2.52 µM)
1.44 (≈ 2.73 µM)	1.56 (≈ 2.96 µM)	1.33 (≈ 2.52 µM)		COc1ccccc1/C=C/C(=O)c1ccc(OCCCN2C(=O)/C=C/C(C)(C)C/C=C(\C)CC/C=C/2C)cc1	2.82 (≈ 5.34 µM)	0.83 (≈ 1.57 µM)
0.84 (≈ 1.35 µM)	0.93 (≈ 1.49 µM)	0.85 (≈ 1.36 µM)		C/C1=C\CC(C)(C)/C=C/C(=O)N(Cc2cn(CCOc3ccc(C(=O)/C=C/c4ccc(C(C)C)cc4)c(O)c3)nn2)/C(C)=C/CC1	0.77 (≈ 1.24 µM)	1.39 (≈ 2.23 µM)
1.01 (≈ 1.65 µM)	1.12 (≈ 1.83 µM)	0.95 (≈ 1.56 µM)		COc1cccc(/C=C/C(=O)c2ccc(OCCn3cc(CN4C(=O)/C=C/C(C)(C)C/C=C(\C)CC/C=C/4C)nn3)cc2O)c1	0.61 (≈ 0.999 µM)	0.89 (≈ 1.46 µM)
1.73 (≈ 3.28 µM)	3.17 (≈ 6.01 µM)	2.92 (≈ 5.53 µM)		COc1ccc(/C=C/C(=O)c2ccc(OCCCN3C(=O)/C=C/C(C)(C)C/C=C(\C)CC/C=C/3C)cc2)cc1	2.56 (≈ 4.85 µM)	1.3 (≈ 2.46 µM)

SMILES	IC50 [2] [µg/mL]	IC50 [3] [µg/mL]	IC50 [5] [µg/mL]	IC50 [6] [µg/mL]	IC50 [1] [µg/mL]	IC50 [4] [µg/mL]
Cc1c2ccncc2c(C)c2c1[nH]c1ccccc12 [ELLIPTECINE]	0.36 (≈ 1.46 µM)	0.44 (≈ 1.79 µM)	0.38 (≈ 1.54 µM)		0.63 (≈ 2.56 µM)	0.44 (≈ 1.79 µM)
